“Also recorded” adds a separate entry of the source. Where two headings read alike, the source gives them in different places.
Tests used:
[1] = system: Heliothis virescens (tobacco budworm); assay: whole plant or invertebrate
Experimental: (§1) Lepidopteran bioassays. Lepidopteran bioassays were performed at Benzon Research, Inc. (Carlisle, PA). 3,3′-Diindolylmethane samples were solubilized in dimethyl sulfoxide (DMSO). Samples were then frozen and shipped to Benzon. Samples were resuspended with 9× volumes of water before application to the assay well. The final DMSO concentration in the assay well was 2%. PLU6 extract samples were prepared as a series of three 1:5 dilutions in dimethyl sulfoxide. Samples were then further diluted with fresh NYSM broth, then shipped to Benzon Research for use in a diet overlay assay. Assays were performed using neonate larvae of 14 different Lepidopteran species (Anticarsia gemmatalis (velvetbean caterpillar), Diatraea grandiosella (southwestern corn borer), Diatraea saccharalis (sugarcane borer), Ostrinia nubilalis (European corn borer), Trichoplusia ni (cabbage looper), Chrysodeixis includens (soybean looper), Spodoptera exigua (beet armyworm), Spodoptera frugiperda (fall armyworm), Spodoptera eridania (southern armyworm), Chloridia virescens (tobacco budworm), Helicoverpa zea (corn earworm), Agrotis ipsilon (black cutworm), Cydia pomonella (codling moth), Plutella xylostella (diamondback moth) with an N=16 or N=32, apart from P. xylostella, for which third instar larvae were used. A diet-surface overlay format was used, in which 500 microliters of diet was placed in each well. One hundred microliters of sample was then pipetted into each well and allowed to dry. A DMSO control was included with each set of samples. An internal Btk (Bacillus thurengiensis kurstaki) standard at a concentration of 1000 ppm was used as a positive control, and water was used as a negative control.
(§2) Experiments were conducted in which mortality of lepidopteran larvae was measured after 7 days of diet overlay treatment with 3,3′-diindolylmethane at the concentrations indicated in Table 3. Mean mortalities and standard deviations were calculated from three independent experiments (each N=16). For each experiment, mortalities were corrected using Abbott's formula (Abbott (1987) “Method of computing the effectiveness of an insecticide” J. American Mosquito Control Association 2: 302-03, incorporated herein by reference). For all species except Plutella xylostella, neonates were used. For P. xylostella, third instar larvae were used. The positive control used was 1000 ppm of Bacillus thuringiensis kurstaki.

[2] = system: Spodoptera frugiperda (fall armyworm); assay: whole plant or invertebrate
Experimental: as §1, §2

[3] = system: Ostrinia nubilalis (European corn borer); assay: Lepidopteran diet overlay bioassay
Experimental: as §1, §2

[4] = system: Plutella xylostella (diamondback moth); assay: Lepidopteran diet overlay bioassay
Experimental: as §1, §2

[5] = system: Agrotis ipsilon (black cutworm); assay: Lepidopteran diet overlay bioassay
Experimental: as §1

[6] = system: Chrysodeixis includens (soybean looper); assay: Lepidopteran diet overlay bioassay; conditions: in Glycine max, 168 h, read-out: Mortalities (%) after 7 days of treatment (Abbott’s Correction), SBL
Experimental: as §1

[7] = system: Cydia pomonella (codling moth); assay: Lepidopteran diet overlay bioassay; conditions: 168 h, read-out: Mortalities (%) after 7 days of treatment (Abbott’s Correction), CM
Experimental: as §1

[8] = system: Diatraea grandiosella (southwestern corn borer); assay: Lepidopteran diet overlay bioassay; conditions: in Zea mays, 168 h, read-out: Mortalities (%) after 7 days of treatment (Abbott’s Correction), SWCB
Experimental: as §1

[9] = system: Diatraea saccharalis (sugarcane borer); assay: Lepidopteran diet overlay bioassay; conditions: 168 h, read-out: Mortalities (%) after 7 days of treatment (Abbott’s Correction), SCB
Experimental: as §1

[10] = system: Helicoverpa zea (corn earworm); assay: Lepidopteran diet overlay bioassay; conditions: 168 h, read-out: Mortalities (%) after 7 days of treatment (Abbott’s Correction), CEW
Experimental: as §1

[11] = system: Spodoptera eridania (southern armyworm); assay: Lepidopteran diet overlay bioassay; conditions: 168 h, read-out: Mortalities (%) after 7 days of treatment (Abbott’s Correction), SAW
Experimental: as §1

[12] = Heliothis virescens, 168 h, read-out: Mortalities (%) after 7 days of treatment (Abbott’s Correction), TBW
[13] = Heliothis virescens, 168 h, read-out: Mortality, Heliothis virescens (tobacco budworm)
[14] = Spodoptera frugiperda, 168 h, read-out: Mortalities (%) after 7 days of treatment (Abbott’s Correction), FAW
[15] = Spodoptera frugiperda, 168 h, read-out: Mortality, Spodoptera frugiperda (fall armyworm)
[16] = Ostrinia nubilalis, 168 h, read-out: Mortality, Ostrinia nubilalis (European corn borer)
[17] = Plutella xylostella, 168 h, read-out: Mortalities (%) after 7 days of treatment (Abbott’s Correction), DBM
[18] = Plutella xylostella, 168 h, read-out: Mortality, Plutella xylostella (diamondback moth)
[19] = Agrotis ipsilon, 168 h, read-out: Mortalities (%) after 7 days of treatment (Abbott’s Correction), BCW

Work on `c1ccc2c(Cc3c[nH]c4ccccc34)c[nH]c2c1` [3,3′-diindolylmethane, 3,3′-Diindolylmethane] yielded a mortality at 156.25 µg/mL [1, 12] of 74.2%, a mortality at 625 µg/mL [1, 12] of 74.2% and a mortality at 2500 µg/mL [1, 12] of 87.1%. For the same compound, the mortality at 9.77 µg/mL [1, 13] was 3.16%, the mortality at 39.06 µg/mL [1, 13] was 40.9% and the mortality at 156.25 µg/mL [1, 13] was 85.2%. For the same compound, the mortality at 625 µg/mL [1, 13] was 93.8%, the mortality at 2500 µg/mL [1, 13] was 83.3% and the “activity against tobacco budworm” value ([1]; diet overlay) was “active; also recorded: dose-dependent activity”. The mortality at 156.25 µg/mL [2, 14] was 40%, the mortality at 625 µg/mL [2, 14] was 63.3% and the mortality at 2500 µg/mL [2, 14] was 96.7%. For the same compound, the mortality at 9.77 µg/mL [2, 15] was 4.1%, the mortality at 39.06 µg/mL [2, 15] was 2.15% and the mortality at 156.25 µg/mL [2, 15] was 79%. For the same compound, the mortality at 625 µg/mL [2, 15] was 85.1%, the mortality at 2500 µg/mL [2, 15] was 95.7% and the “activity against Spodoptera frugiperda” value ([2]; diet overlay) was “active; also recorded: dose-dependent activity”. It also gave a mortality at 9.77 µg/mL [3, 16] of 2.08%, a mortality at 39.06 µg/mL [3, 16] of 2.08% and a mortality at 156.25 µg/mL [3, 16] of 4.17%. For the same compound, the mortality at 625 µg/mL [3, 16] was 6.25%, the mortality at 2500 µg/mL [3, 16] was 4.17% and the “activity against O. nubilalis” value ([3]; diet overlay) was “low or not observed”. For the same compound, the mortality at 156.25 µg/mL [4, 17] was 19.4%, the mortality at 625 µg/mL [4, 17] was 6.5% and the mortality at 2500 µg/mL [4, 17] was 19.4%. For the same compound, the mortality at 9.77 µg/mL [4, 18] was 1.01%, the mortality at 39.06 µg/mL [4, 18] was 1.07% and the mortality at 156.25 µg/mL [4, 18] was 7.39%. For the same compound, the mortality at 625 µg/mL [4, 18] was 15.7%, the mortality at 2500 µg/mL [4, 18] was 43.4% and the “activity against P. xylostella” value ([4]; diet overlay) was “low or not observed”. For the same compound, the mortality at 156.25 µg/mL [5, 19] was 0%, the mortality at 625 µg/mL [5, 19] was 26.7% and the mortality at 2500 µg/mL [5, 19] was 20%. For the same compound, the “activity against A. ipsilon” value ([5]; diet overlay) was “low or not observed”, the mortality at 156.25 µg/mL [6] was 26.7% and the mortality at 625 µg/mL [6] was 50%. For the same compound, the mortality at 2500 µg/mL [6] was 80%, the mortality at 156.25 µg/mL [7] was 21.4% and the mortality at 625 µg/mL [7] was 50%. It also gave a mortality at 2500 µg/mL [7] of 39.3%, a mortality at 156.25 µg/mL [8] of 46.7% and a mortality at 625 µg/mL [8] of 90%. For the same compound, the mortality at 2500 µg/mL [8] was 83.3%, the mortality at 156.25 µg/mL [9] was 100% and the mortality at 625 µg/mL [9] was 100%. The mortality at 2500 µg/mL [9] was 100%, the mortality at 156.25 µg/mL [10] was 40.6% and the mortality at 625 µg/mL [10] was 50%. It also gave a mortality at 2500 µg/mL [10] of 90.6%, a mortality at 156.25 µg/mL [11] of 22.6% and a mortality at 625 µg/mL [11] of 100%. It also gave a mortality at 2500 µg/mL [11] of 100%.
